Source: patent US8455501B2, “N-(5-cycloalkyl)-pyridin-3-yl carboxamides” (Hoffmann-La Roche Inc, priority 2011, dated 2013)

Experiments:
ABCA1 protein = experiment: Detection of upregulation of ABCA1 protein in cells (ApoA-I binding, High Content Image Analysis); format: cell-based; conditions: THP-1 macrophage cells, 24 hrs with compound
Method: Detection of upregulation of ABCA1 protein in cells
The ability of compounds of the invention to increase the level of ABCA1 protein is determined in replicate cultures of THP-1 macrophage cells in 96-well microplates. Cells are plated at an initial density of 100,000 cells/well in 100 μl medium and differentiated to adherent macrophages with the addition of PMA (100 nM) for 68 hrs in 10% fetal bovine serum, 3 μl/L of b-mercaptoethanol, RPMI-1640 medium. Then, cells are incubated with RPMI-1640 medium containing 1% FCS, 25 μg/ml acetylated LDL, for 24 hours at 37° C. Following incubation with acetylated LDL, cells are washed twice with 50 μl PBS and incubated with 100 μl of RPMI-1640 medium containing the compound of interest solubilized in DMSO for an additional 24 hrs. The final DMSO concentration in presence of cells is maintained at 0.5%. ApoA-I binding assay using High Content Image Analysis is initiated by replacing with fresh medium, RPMI without Phenol Red, 0.2% BSA containing AlexaFluor®647 labeled ApoA-I for 2 h/37° C./5% CO2. Then, cells are fixed with 4% Formaldehyde in PBS (15 min, RT). Following Nuclei are stained with Hoechst solution (3 μM PBS) and Cytoplasm with Cell Mask Blue (2 μg/ml PBS), 15 min, RT. Finally the stained cells are fixed with a second round of formaldehyde treatment. Fixed stained cells are washed and kept in PBS at 4° C. and can be read immediately until one month after preparation.
The Alexa Fluor 647-labeled Apolipoprotein A-I (20 nM) was prepared as follows: Human recombinant Apolipoprotein A-I (ApoA-I) was exchanged to a buffer of 0.02 M NaHCO3 at pH 8.2 on an NAP desalting column (GE Healthcare) and brought to a concentration to 40 μM (1.13 mg/ml) by adjustment with the same buffer. The ApoA-I was fluorescently labeled by incubation with Alexa Fluor carboxylic acid succimidyl ester (Alexa Fluor 647, Invitrogen A-20006) at a 2:1 molar ratio (Alexa to ApoA-I) for 1 h under shaking at RT. The remaining unconjugated label was removed by buffer exchange to 0.02M NaHCO3 at pH 8.2.
Imaging and data collection were performed on an OPERA confocal microplate imaging reader using a 20× water immersion objective and UV360 or 405 laser to identify the cell nuclei and a 635 laser to identify the fluorescent ApoA-I. Eight fields of view are captured per well. Image capture and analysis was performed with the Acapella software. Background fluorescence detected in control wells without ApoA-I was subtracted.
Using XLfit3 program (ID Business Solutions Ltd. UK), the model 205 for Dose Response One Site is used to calculate the EC50 values. […] Particularly, the compounds of the present invention have EC50 values in a range of 0.1 μM to 3 μM.

human CB2 receptor = target: T1, human CB2 receptor (Homo sapiens, UniProt P34972); experiment: CB2 receptor affinity, displacement of [3H]-CP-55,940; format: binding; conditions: HEK cell membranes, radioligand [3H]-CP-55,940
T1 construct: expressed in transfected cells; host or cells: human embryonic kidney (HEK) cells, Semliki Forest Virus system, membrane preparation
Method: (§1) CB1 and CB2 Receptor Affinity
(§2) The affinity of the compounds of the invention for cannabinoid CB2 receptors was determined using membrane preparations of human embryonic kidney (HEK) cells in which the human CB2 receptor is transiently transfected using a Semliki Forest Virus system in conjunction with [^3H]-CP-55,940 as radioligand. After incubation of freshly prepared cell membrane preparation with the [^3H]-ligand, with or without addition of compounds of the invention, separation of bound and free ligand was performed by filtration over glass fiber filters. Radioactivity on the filter was measured by scintillation counting.
(§3) The ability of the compounds to displace the radioligand [^3H]-CP-55,940 was measured at a concentration of 10 μM and values provided as [% inhibition @10 μM] both for the CB1 and CB2 receptor assay, The lower % inhibition is, the lower the likelihood of side effects based on CB1 or CB2 receptor inhibition is.

human CB1 receptor = target: T2, human CB1 receptor (Homo sapiens, UniProt P21554); experiment: CB1 receptor affinity, displacement of [3H]-CP-55,940; format: binding; conditions: HEK cell membranes, radioligand [3H]-CP-55,940
T2 construct: expressed in transfected cells; host or cells: human embryonic kidney (HEK) cells, Semliki Forest Virus system, membrane preparation
Method: as §1
as §2, with “cannabinoid” for “cannabinoid CB2”, “CB1” for “CB2”, “[3H]-CP-55,940” for “[^3H]-CP-55,940”
as §3

T1 sequence (P34972 whole entry): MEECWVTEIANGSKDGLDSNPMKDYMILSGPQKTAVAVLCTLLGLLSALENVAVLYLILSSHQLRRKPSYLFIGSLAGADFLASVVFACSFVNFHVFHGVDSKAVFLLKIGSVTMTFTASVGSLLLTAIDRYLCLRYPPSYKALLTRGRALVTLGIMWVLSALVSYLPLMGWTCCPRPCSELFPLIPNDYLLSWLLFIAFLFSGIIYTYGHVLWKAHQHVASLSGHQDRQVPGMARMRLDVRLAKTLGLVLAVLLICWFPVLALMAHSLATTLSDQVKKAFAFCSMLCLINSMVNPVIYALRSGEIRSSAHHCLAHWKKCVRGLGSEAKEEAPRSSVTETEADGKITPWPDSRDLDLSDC
T2 sequence (P21554 whole entry): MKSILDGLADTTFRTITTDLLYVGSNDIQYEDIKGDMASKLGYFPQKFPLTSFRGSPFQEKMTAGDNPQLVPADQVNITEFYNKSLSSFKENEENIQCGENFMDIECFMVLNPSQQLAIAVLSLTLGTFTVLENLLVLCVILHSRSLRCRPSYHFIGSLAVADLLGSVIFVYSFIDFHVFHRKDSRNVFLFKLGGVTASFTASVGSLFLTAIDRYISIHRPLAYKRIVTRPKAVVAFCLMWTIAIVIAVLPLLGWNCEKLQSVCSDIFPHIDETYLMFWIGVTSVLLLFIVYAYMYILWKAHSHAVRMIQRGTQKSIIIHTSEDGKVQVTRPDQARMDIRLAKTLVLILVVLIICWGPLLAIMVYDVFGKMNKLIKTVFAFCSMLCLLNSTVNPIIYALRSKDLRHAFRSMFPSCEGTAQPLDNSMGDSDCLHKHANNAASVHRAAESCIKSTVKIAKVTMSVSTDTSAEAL

Row | SMILES | % increase of ABCA1 at 3 μM (ABCA1 protein) | inhibition at 10 µM (human CB2 receptor) | inhibition at 10 µM (human CB1 receptor)
1 | COc1cncc(C(=O)Nc2cnc(OCC(F)(F)F)c(C3CCCC3)c2)c1 [Example 1, N-[5-cyclopentyl-6-(2,2,2-trifluoro-ethoxy)-pyridin-3-yl]-5-methoxy-nicotinamide] | >45% @ 3 μM | -9% | 4%
2 | Cc1cc(C(=O)Nc2cnc(OCC(F)(F)F)c(C3CCCC3)c2)[nH]n1 [Example 2, 5-methyl-2H-pyrazole-3-carboxylic acid [5-cyclopentyl-6-(2,2,2-trifluoro-ethoxy)-pyridin-3-yl]-amide] | >45% @ 3 μM | -12% | 22%
3 | Cc1ocnc1C(=O)Nc1cnc(OCC(F)(F)F)c(C2CCCC2)c1 [Example 3, 5-methyl-oxazole-4-carboxylic acid [5-cyclopentyl-6-(2,2,2-trifluoro-ethoxy)-pyridin-3-yl]-amide] | >45% @ 3 μM | 0% | 26%
4 | O=C(Nc1cnc(OCC(F)(F)F)c(C2CCCC2)c1)c1cccnc1 [Example 4, N-[5-cyclopentyl-6-(2,2,2-trifluoro-ethoxy)-pyridin-3-yl]-nicotinamide] | >45% @ 3 μM | 2% | 34%
5 | O=C(Nc1cnc(OCC(F)(F)F)c(C2CCCC2)c1)c1ccccn1 [Example 5, pyridine-2-carboxylic acid [5-cyclopentyl-6-(2,2,2-trifluoro-ethoxy)-pyridin-3-yl]-amide] | >45% @ 3 μM | -8% | 28%
6 | O=C(Nc1cnc(OCC(F)(F)F)c(C2CCCC2)c1)c1ccccc1 [Example 6, N-[5-cyclopentyl-6-(2,2,2-trifluoro-ethoxy)-pyridin-3-yl]-benzamide] | >45% @ 3 μM | -5% | 40%
7 | O=C(Nc1cnc(OCC(F)(F)F)c(C2CCCC2)c1)c1cncnc1 [Example 7, pyrimidine-5-carboxylic acid [5-cyclopentyl-6-(2,2,2-trifluoro-ethoxy)-pyridin-3-yl]-amide] | >45% @ 3 μM | -12% | 21%
8 | O=C(Nc1cnc(OCC(F)(F)F)c(C2CCCCC2)c1)c1cccnc1 [Example 8, N-[5-cyclohexyl-6-(2,2,2-trifluoro-ethoxy)-pyridin-3-yl]-nicotinamide] | >45% @ 3 μM | -13% | 28%
9 | Cc1cc(C(=O)Nc2cnc(OCC(F)(F)F)c(C3CCCCC3)c2)[nH]n1 [Example 9, 5-methyl-2H-pyrazole-3-carboxylic acid [5-cyclohexyl-6-(2,2,2-trifluoro-ethoxy)-pyridin-3-yl]-amide] | >45% @ 3 μM | -9% | 27%
10 | Cc1ocnc1C(=O)Nc1cnc(OCC(F)(F)F)c(C2CCCCC2)c1 [Example 10, 5-methyl-oxazole-4-carboxylic acid [5-cyclohexyl-6-(2,2,2-trifluoro-ethoxy)-pyridin-3-yl]-amide] | >45% @ 3 μM | -8% | 13%
11 | O=C(Nc1cnc(OCC(F)(F)F)c(C2CCCCC2)c1)c1ccccn1 [Example 11, pyridine-2-carboxylic acid [5-cyclohexyl-6-(2,2,2-trifluoro-ethoxy)-pyridin-3-yl]-amide] | >45% @ 3 μM | 3% | 33%
12 | COc1cncc(C(=O)Nc2cnc(OCC(F)(F)F)c(C3CCCCC3)c2)c1 [Example 12, N-[5-cyclohexyl-6-(2,2,2-trifluoro-ethoxy)-pyridin-3-yl]-5-methoxy-nicotinamide] | >45% @ 3 μM | -13% | 19%
13 | O=C(Nc1cnc(OCC(F)(F)F)c(C2CCCCC2)c1)c1ccccc1 [Example 13, N-[5-cyclohexyl-6-(2,2,2-trifluoro-ethoxy)-pyridin-3-yl]-benzamide] | >45% @ 3 μM | -13% | 38%
